Measured values as given in US20260062422A1 (Halda Therapeutics OpCo, Inc., priority 2022, published 2026).
Each block holds one molecule with its values, some of them ahead of it.

Experiments:
[1] = system: T-Rex 293 cell line SC3 cells having increased expression of androgen receptor protein due to exposure to doxycycline; test: Cellular growth inhibition, T-Rex 293 SC3 cells with doxycycline (androgen receptor induced), CellTiter-Glo; type: cell-based; details: T-Rex 293 SC3 cells with 10 ng/mL doxycycline (increased androgen receptor expression)
Summary of the method: (§1)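 Cells of clone SC3 are seeded in charcoal-dextran-stripped serum medium with or without 10 ng/mL doxycycline to induce wild-type androgen receptor. After 24 h, serial compound dilutions are added at 0.5% DMSO and incubated 72 h at 37 °C. CellTiter-Glo 2.0 measures viability, giving GI50 values.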

[2] = system: T-Rex 293 cell line SC3 cells lacking increased expression of androgen receptor protein; test: Cellular growth inhibition, T-Rex 293 SC3 cells without doxycycline, CellTiter-Glo; type: cell-based; details: T-Rex 293 SC3 cells not exposed to doxycycline, CellTiter-Glo 2.0
Summary of the method: as §1

VCaP cells = test: Cellular growth inhibition assay for VCaP cells, CellTiter-Glo; type: cell-based, human; details: 72 hours treatment, CellTiter-Glo 2.0
Summary of the method: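 GI50 values come from four-parameter curve fits of luminescence data normalized to a zero baseline. Compound, in medium with 0.5% DMSO, was added one day after plating and left for 72 h before CellTiter-Glo 2.0 addition.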

T47D cells = test: Cellular growth inhibition assay for T47D cells, CellTiter-Glo; type: cell-based, human; details: 72 hours treatment, CellTiter-Glo 2.0 cell viability
Summary of the method: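 Luminescence from CellTiter-Glo 2.0 after 72 h of compound exposure gives the viability signal. Cells grew in insulin-supplemented (0.2 units/mL) DMEM with 10% FBS and were treated one day after seeding at 0.5% DMSO. GI50 values come from four-parameter nonlinear regression.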

SMILES: Cc1sc2c(c1C)C(c1ccc(C(=O)N3CCN(CCc4ncc(C(=O)N[C@H]5C(C)(C)[C@H](Oc6ccc(C#N)c(Cl)c6)C5(C)C)cn4)CC3)cc1)=N[C@@H](Cc1ncco1)c1nnc(C)n1-2 [Compound I-333]
GI50 ([1]; 72 h): > 3000 nM
GI50 ([2]; 72 h): > 3000 nM
GI50 (VCaP cells; Homo sapiens, VCaP, 72 h): > 3000 nM
GI50 (T47D cells; Homo sapiens, T47D, 72 h): > 3000 nM

SMILES: Cc1sc2c(c1C)C(c1ccc(OCCC3CCN(c4ncc(C(=O)N[C@H]5C(C)(C)[C@H](Oc6ccc(C#N)c(Cl)c6)C5(C)C)cn4)CC3)cc1)=NC(Cc1ncco1)c1nnc(C)n1-2 (some centres unmarked) [Compound I-167]
GI50 ([1]; 72 h): < 500 nM
GI50 ([2]; 72 h): 500 to 1500 nM
GI50 (VCaP cells; Homo sapiens, VCaP, 72 h): < 500 nM
GI50 (T47D cells; Homo sapiens, T47D, 72 h): 500 to 1500 nM

SMILES: Cc1sc2c(c1C)C(c1ccc(N3CC(C4CCN(c5ncc(C(=O)N[C@H]6C(C)(C)[C@H](Oc7ccc(C#N)c(Cl)c7)C6(C)C)cn5)C4)C3)cc1)=N[C@@H](C)c1nnc(C)n1-2 (some centres unmarked) [Compound I-617]
GI50 ([1]; 72 hours): < 500 nM
GI50 ([2]; 72 hours): < 500 nM
GI50 (VCaP cells): < 500 nM
GI50 (T47D cells): < 500 nM

SMILES: Cc1sc2c(c1C)C(c1ccc([C@H]3C[C@H]([C@@H]4CCCN(c5ncc(C(=O)N[C@H]6C(C)(C)[C@H](Oc7ccc(C#N)c(Cl)c7)C6(C)C)cn5)C4)C3)cc1)=N[C@@H](Cc1ncco1)c1nnc(C)n1-2 [Compound I-423]
GI50 ([1]; 72 hours): < 500 nM
GI50 ([2]; 72 hours): > 3000 nM
GI50 (VCaP cells): < 500 nM
GI50 (T47D cells): 500 to 1500 nM

SMILES: Cc1sc2c(c1C)C(c1ccc([C@H]3CCCCN3C(=O)[C@H]3CCCN(c4ncc(C(=O)N[C@H]5C(C)(C)[C@@H](Oc6ccc(C#N)c(Cl)c6)C5(C)C)cn4)C3)cc1)=N[C@@H](Cc1ncco1)c1nnc(C)n1-2 [Compound I-359]
GI50 ([1]; 72 h): < 500 nM
GI50 ([2]; 72 h): > 3000 nM
GI50 (VCaP cells; Homo sapiens, VCaP, 72 h): < 500 nM
GI50 (T47D cells; Homo sapiens, T47D, 72 h): > 3000 nM

SMILES: Cc1sc2c(c1C)C(c1ccc(OC3CC4(CCN(c5ncc(C(=O)N[C@H]6C(C)(C)[C@H](Oc7ccc(C#N)c(Cl)c7)C6(C)C)cn5)CC4)C3)cc1)=N[C@@H](CC(C)(C)O)c1nnc(C)n1-2 [Compound I-280]
GI50 ([1]; 72 h): < 500 nM
GI50 ([2]; 72 h): > 3000 nM
GI50 (VCaP cells; Homo sapiens, VCaP, 72 h): < 500 nM
GI50 (T47D cells; Homo sapiens, T47D, 72 h): > 3000 nM

SMILES: CCNC(=O)C[C@@H]1N=C(c2ccc(OCCN(C)c3ncc(C(=O)N[C@H]4C(C)(C)[C@H](Oc5ccc(C#N)c(Cl)c5)C4(C)C)cn3)cc2)c2c(sc(C)c2C)-n2c(C)nnc21 [Compound I-80]
GI50 ([1]; 72 h): < 500 nM
GI50 ([2]; 72 h): 500 to 1500 nM
GI50 (VCaP cells; Homo sapiens, VCaP, 72 h): < 500 nM
GI50 (T47D cells; Homo sapiens, T47D, 72 h): 500 to 1500 nM

SMILES: Cc1sc2c(c1C)C(c1ccc(O[C@@H]3CC[C@]4(CCCN(c5ncc(C(=O)N[C@H]6C(C)(C)[C@H](Oc7ccc(C#N)c(Cl)c7)C6(C)C)cn5)C4)C3)cc1)=N[C@@H](Cc1ncco1)c1nnc(C)n1-2 [Compound I-202]
GI50 ([1]; 72 h): < 500 nM
GI50 ([2]; 72 h): > 3000 nM
GI50 (VCaP cells; Homo sapiens, VCaP, 72 h): < 500 nM
GI50 (T47D cells; Homo sapiens, T47D, 72 h): 500 to 1500 nM

SMILES: Cc1sc2c(c1C)C(c1ccc(CN3CC(=O)N4CC(c5ncc(C(=O)N[C@H]6C(C)(C)[C@H](Oc7ccc(C#N)c(Cl)c7)C6(C)C)cn5)C[C@H]4C3=O)cc1)=N[C@@H](Cc1ncco1)c1nnc(C)n1-2 (some centres unmarked) [Compound I-385]
GI50 ([1]; 72 h): > 3000 nM
GI50 ([2]; 72 h): > 3000 nM
GI50 (VCaP cells; Homo sapiens, VCaP, 72 h): 1500 to 3000 nM
GI50 (T47D cells; Homo sapiens, T47D, 72 h): > 3000 nM

SMILES: Cc1sc2c(c1C)C(c1ccc(C3CC(C4CCN(c5cnc(C(=O)N[C@H]6C(C)(C)[C@H](Oc7ccc(C#N)c(Cl)c7)C6(C)C)cn5)CC4)C3)cc1)=NC(C)c1nnc(C)n1-2 (some centres unmarked) [Compound I-470]
GI50 ([1]; 72 hours): < 500 nM
GI50 ([2]; 72 hours): > 3000 nM
GI50 (VCaP cells): < 500 nM
GI50 (T47D cells): 500 to 1500 nM

SMILES: CC[C@@H]1N=C(c2ccc(N3CC(CC4CCN(c5cnc(C(=O)N[C@H]6C(C)(C)[C@H](Oc7ccc(C#N)c(Cl)c7)C6(C)C)cn5)CC4)C3)cc2)c2c(sc(C)c2C)-n2c(C)nnc21 [Compound I-594]
GI50 ([1]; 72 h): > 3000 nM
GI50 ([2]; 72 h): > 3000 nM
GI50 (VCaP cells; Homo sapiens, VCaP, 72 h): > 3000 nM
GI50 (T47D cells; Homo sapiens, T47D, 72 h): 1500 to 3000 nM

SMILES: Cc1sc2c(c1C)C(c1ccc(N3CCC(CCc4cnc(C(=O)N[C@H]5C(C)(C)[C@H](Oc6ccc(C#N)c(Cl)c6)C5(C)C)cn4)CC3)cc1)=N[C@@H](Cc1ncco1)c1nnc(C)n1-2 [Compound I-478]
GI50 ([1]; 72 h): < 500 nM
GI50 ([2]; 72 h): 500 to 1500 nM
GI50 (VCaP cells; Homo sapiens, VCaP, 72 h): < 500 nM
GI50 (T47D cells; Homo sapiens, T47D, 72 h): 500 to 1500 nM

The next lines start with results.

GI50 (VCaP cells; Homo sapiens, VCaP, 72 h): > 3000 nM
GI50 (T47D cells; Homo sapiens, T47D, 72 h): < 500 nM
SMILES: Cc1sc2c(c1C)C(c1ccc(CC3CC4(CCN(c5cnc(C(=O)N[C@H]6C(C)(C)[C@H](Oc7ccc(C#N)c(Cl)c7)C6(C)C)cn5)CC4)C3)cc1)=N[C@@H](C)c1nnc(C)n1-2 [Compound I-448]
GI50 ([1]; 72 h): < 500 nM
GI50 ([2]; 72 h): > 3000 nM

GI50 (VCaP cells; Homo sapiens, VCaP, 72 h): < 500 nM
GI50 (T47D cells; Homo sapiens, T47D, 72 h): < 500 nM
SMILES: Cc1sc2c(c1C)C(c1ccc(CN3CC4(C3)CN(c3ncc(C(=O)N[C@H]5C(C)(C)[C@H](Oc6ccc(C#N)c(Cl)c6)C5(C)C)cn3)CCO4)cc1)=NC(Cc1ncco1)c1nnc(C)n1-2 (some centres unmarked) [Compound I-139]
GI50 ([1]; 72 h): < 500 nM
GI50 ([2]; 72 h): < 500 nM

GI50 (VCaP cells; Homo sapiens, VCaP, 72 h): < 500 nM
GI50 (T47D cells; Homo sapiens, T47D, 72 h): < 500 nM
SMILES: Cc1sc2c(c1C)C(c1ccc([C@H]3CCCN(c4ncc(C(=O)N[C@H]5C(C)(C)[C@H](Oc6ccc(C#N)c(Cl)c6)C5(C)C)cn4)C3)cc1)=N[C@@H](Cc1ncco1)c1nnc(C)n1-2 [Compound I-302]
GI50 ([1]; 72 h): < 500 nM
GI50 ([2]; 72 h): 500 to 1500 nM

GI50 (VCaP cells; Homo sapiens, VCaP, 72 h): < 500 nM
GI50 (T47D cells; Homo sapiens, T47D, 72 h): < 500 nM
SMILES: Cc1sc2c(c1C)C(c1ccc(C3CC(N4CCN(c5ccc(C(=O)N[C@H]6C(C)(C)[C@H](Oc7ccc(C#N)c(Cl)c7)C6(C)C)cn5)CC4)C3)cc1)=N[C@@H](C)c1nnc(C)n1-2 (some centres unmarked) [Compound I-572]
GI50 ([1]; 72 h): < 500 nM
GI50 ([2]; 72 h): < 500 nM

GI50 (VCaP cells; Homo sapiens, VCaP, 72 h): < 500 nM
GI50 (T47D cells; Homo sapiens, T47D, 72 h): < 500 nM
SMILES: Cc1sc2c(c1C)C(c1ccc(CCCOC3CCN(c4ncc(C(=O)N[C@H]5C(C)(C)[C@H](Oc6ccc(C#N)c(Cl)c6)C5(C)C)cn4)CC3)cc1)=N[C@@H](Cc1cccnc1)c1nnc(C)n1-2 [Compound I-214]
GI50 ([1]; 72 h): < 500 nM
GI50 ([2]; 72 h): < 500 nM

GI50 (VCaP cells; Homo sapiens, VCaP, 72 h): < 500 nM
GI50 (T47D cells; Homo sapiens, T47D, 72 h): < 500 nM
SMILES: Cc1sc2c(c1C)C(c1ccc(NC[C@@H]3CN(c4ncc(C(=O)N[C@H]5C(C)(C)[C@H](Oc6ccc(C#N)c(Cl)c6)C5(C)C)cn4)CCO3)cc1)=N[C@@H](Cc1ncco1)c1nnc(C)n1-2 [Compound I-646]
GI50 ([1]; 72 h): < 500 nM
GI50 ([2]; 72 h): < 500 nM

GI50 (VCaP cells; Homo sapiens, VCaP, 72 h): < 500 nM
GI50 (T47D cells; Homo sapiens, T47D, 72 h): < 500 nM
SMILES: Cc1sc2c(c1C)C(c1ccc(C[C@H]3C[C@H]([C@@H]4CCCN(c5ncc(C(=O)N[C@H]6C(C)(C)[C@H](Oc7ccc(C#N)c(Cl)c7)C6(C)C)cn5)C4)C3)cc1)=N[C@@H](Cc1ncco1)c1nnc(C)n1-2 [Compound I-162]
GI50 ([1]; 72 h): < 500 nM
GI50 ([2]; 72 h): < 500 nM

GI50 (VCaP cells; Homo sapiens, VCaP, 72 h): < 500 nM
GI50 (T47D cells; Homo sapiens, T47D, 72 h): < 500 nM
SMILES: Cc1sc2c(c1C)C(c1ccc(N3CC4(CCC(Cc5ncc(C(=O)N[C@H]6C(C)(C)[C@H](Oc7ccc(C#N)c(Cl)c7)C6(C)C)cn5)CC4)C3)cc1)=N[C@@H](Cc1ncco1)c1nnc(C)n1-2 [Compound I-458]
GI50 ([1]; 72 h): < 500 nM
GI50 ([2]; 72 h): < 500 nM

GI50 (VCaP cells; Homo sapiens, VCaP, 72 h): < 500 nM
GI50 (T47D cells; Homo sapiens, T47D, 72 h): < 500 nM
SMILES: Cc1sc2c(c1C)C(c1ccc(N3CCC4(CC3)CCN(c3ncc(C(=O)N[C@H]5C(C)(C)[C@H](Oc6ccc(C#N)c(Cl)c6)C5(C)C)cn3)C4)cc1)=NC(Cc1ncco1)c1nnc(C)n1-2 (some centres unmarked) [Compound I-643]
GI50 ([1]; 72 h): < 500 nM
GI50 ([2]; 72 h): < 500 nM

GI50 (VCaP cells): 500 to 1500 nM
GI50 (T47D cells; Homo sapiens, T47D, 72 h): < 500 nM
SMILES: Cc1sc2c(c1C)C(c1ccc([C@H]3C[C@H](C[C@@H]4CCCN(c5ncc(C(=O)N[C@H]6C(C)(C)[C@H](Oc7ccc(C#N)c(Cl)c7)C6(C)C)cn5)C4)C3)cc1)=N[C@@H](Cc1ncco1)c1nnc(C)n1-2 [Compound I-402]
GI50 ([1]; 72 h): < 500 nM
GI50 ([2]; 72 h): > 3000 nM

GI50 (VCaP cells; Homo sapiens, VCaP, 72 h): < 500 nM
GI50 (T47D cells; Homo sapiens, T47D, 72 h): < 500 nM
SMILES: Cc1sc2c(c1C)C(c1ccc(CCC3CCN(c4ncc(C(=O)N[C@H]5C(C)(C)[C@H](Oc6ccc(C#N)c(Cl)c6)C5(C)C)cn4)CC3)cc1)=N[C@@H](Cc1ncco1)c1nnc(C)n1-2 [Compound I-132]
GI50 ([1]; 72 h): < 500 nM
GI50 ([2]; 72 h): > 3000 nM
